Measured values as given in PubChem BioAssay (NCI).
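Exposure lasted 48 hours, with cells grown in 96-well plates and compounds tested at five concentrations. GI50 is the concentration that inhibits growth by half. TGI: total growth inhibition.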

Assays:
Experiment in all cases: NCI tumour cell line growth inhibition, 48 h
MOLT-4 leukemia = tested on: MOLT-4 leukemia
MDA-MB-231 breast = tested on: MDA-MB-231 breast
HCC-2998 colon = tested on: HCC-2998 colon
SK-OV-3 ovarian = tested on: SK-OV-3 ovarian
DU-145 prostate = tested on: DU-145 prostate
U251 CNS = tested on: U251 CNS
SF-268 CNS = tested on: SF-268 CNS
OVCAR-3 ovarian = tested on: OVCAR-3 ovarian
OVCAR-5 ovarian = tested on: OVCAR-5 ovarian
COLO 205 colon = tested on: COLO 205 colon

| SMILES | GI50 (MOLT-4 leukemia) [µM] | TGI (MOLT-4 leukemia) [µM] | GI50 (MDA-MB-231 breast) [µM] | TGI (MDA-MB-231 breast) [µM] | GI50 (HCC-2998 colon) [µM] | TGI (HCC-2998 colon) [µM] | GI50 (SK-OV-3 ovarian) [µM] | TGI (SK-OV-3 ovarian) [µM] | GI50 (DU-145 prostate) [µM] | TGI (DU-145 prostate) [µM] | GI50 (U251 CNS) [µM] | TGI (U251 CNS) [µM] | GI50 (SF-268 CNS) [µM] | TGI (SF-268 CNS) [µM] | GI50 (OVCAR-3 ovarian) [µM] | TGI (OVCAR-3 ovarian) [µM] | GI50 (OVCAR-5 ovarian) [µM] | TGI (OVCAR-5 ovarian) [µM] | GI50 (COLO 205 colon) [µM] | TGI (COLO 205 colon) [µM] |
| --- | --- | --- | --- | --- | --- | --- | --- | --- | --- | --- | --- | --- | --- | --- | --- | --- | --- | --- | --- | --- |
| CCN1CCN(c2ccc(NC(=O)Nc3nc4ccc(-c5ccccc5OC)cc4s3)cc2)CC1 | 1.8 | 3.67 | 1.72 | 3.28 | 1.83 | 3.39 | 1.79 | 3.55 | 1.75 | 3.26 | 1.57 | 2.94 | 1.87 | 3.63 | 1.64 | 3.11 | 1.8 | 3.37 | 1.97 | 3.85 |
| O=C1OC(OC/C(Br)=C(\Br)COC2OC(=O)C(Cl)=C2Cl)C(Cl)=C1Cl (stereo not given) | – | 2.38 | – | 10.3 | – | 33.7 | – | 43 | – | 28.5 | – | 19 | – | 26.8 | – | 14.5 | – | 30 | – | 4.11 |
| O=C(Nc1nc2c(C(F)(F)F)cccc2s1)c1cc(Cl)ccc1O | 0.318 | 1.21 | 0.27 | 0.952 | 0.451 | 14.1 | 0.236 | 0.797 | 0.466 | > 100 | 0.312 | 42.6 | 0.422 | > 100 | 0.375 | 74.7 | 0.317 | 25.7 | 0.52 | 2.42 |
| Cn1nc(C(F)(F)F)cc1-c1cc(Cl)c(OCc2ccc(Cl)cc2)c(-c2ccc(Cl)c(C(F)(F)F)c2)c1O | 1.01 | 2.39 | 0.958 | 2.43 | 1.4 | 5.45 | 1.43 | 4.31 | 1.76 | 6.87 | 1.05 | 5.13 | 1.24 | 5.47 | 1.13 | 6.12 | 1.72 | 7.4 | 0.718 | 2.39 |
| CC12CCC(C1)C(C)(C)C2OC(=O)c1ccccc1N (stereo not given) | – | 25.1 | – | 30.2 | – | 27.9 | – | 30.3 | – | 33.3 | – | 32.6 | – | 31.6 | – | 30.8 | – | 35 | – | 29 |
| Cc1[nH]nc(C(F)(F)F)c1Cc1sc2c(c1C(=O)N1C[C@](C)(O)CO1)c(=O)n(C)c(=O)n2C(C)C | > 100 | > 100 | > 100 | > 100 | > 100 | > 100 | > 100 | > 100 | > 100 | > 100 | > 100 | > 100 | > 100 | > 100 | > 100 | > 100 | > 100 | > 100 | > 100 | > 100 |
| CCC(=O)OCOc1ccc(/C=C2\CCC(CN(C)C)C2=O)cc1 (stereo not given) | – | 8.07 | – | > 19.9 | – | 18.5 | – | 29.1 | – | 30.6 | – | 26.2 | – | 22.5 | – | 8.29 | – | 31.6 | – | 15.8 |
